# Reference: ChEMBL document CHEMBL4819004, “Discovery of selective CDK9 degraders with enhancing antiproliferative activity through PROTAC conversion” (Eur J Med Chem, 2021)
# Activity calls are given as the source filed them. The calls are words filed in the database; no cut-off is given here.
# Columns and labels:
# [1] = test system: MV4-11; assay: Induction of apoptosis in human MV4-11 cells assessed as early apoptotic cells at 1000 nM after 6 hrs by AnnexinV-FITC/propidium iodide staining based flow cytometry (reference value: 5.36 %); format: functional
# [2] = test system: MV4-11; assay: Induction of apoptosis in human MV4-11 cells assessed as early apoptotic cells at 250 nM after 6 hrs by AnnexinV-FITC/propidium iodide staining based flow cytometry (reference value: 5.36 %); format: functional
# [3] = test system: MV4-11; assay: Induction of apoptosis in human MV4-11 cells assessed as viable cells at 1000 nM after 6 hrs by AnnexinV-FITC/propidium iodide staining based flow cytometry (reference value: 90.1 %); format: functional; settings: read-out: Activity
# [4] = test system: MV4-11; assay: Antiproliferative activity against human MV4-11 cells incubated for 72 hrs by MTT assay; format: functional, cell-based; settings: MV4-11, 72 h
# [5] = test system: B16; assay: Antiproliferative activity against mouse B16 cells incubated for 72 hrs by MTT assay; format: functional, cell-based; settings: B16, 72 h
# [6] = test system: MV4-11; assay: Induction of apoptosis in human MV4-11 cells assessed as late apoptotic cells at 500 nM after 6 hrs by AnnexinV-FITC/propidium iodide staining based flow cytometry (reference value: 4.29%); format: functional
# [7] = test system: MV4-11; assay: Induction of apoptosis in human MV4-11 cells assessed as total apoptotic cells at 100 nM after 6 hrs by AnnexinV-FITC/propidium iodide staining based flow cytometry (reference value: 9.75 %); format: functional
# [8] = Half life in BALB/c nude mouse xenografted with human MV4-11 cells at 5 mg/kg, iv by LC/MS/MS analysis; format: ADME, organism-based; settings: in vivo
# [9] = target: T1, Protein cereblon/Cyclin-dependent kinase 9 (Homo sapiens, UniProt P50750+Q96SW2); assay: Protac activity at CRBN/CDK9 in human MV4-11 cells assessed as CDK9 degradation rate at 500 nM incubated for 6 hrs by Western blot assay relative to control; format: cell-based
# [10] = target: T1, Protein cereblon/Cyclin-dependent kinase 9; assay: PROTAC activity at CRBN/CDK9 in human MV4-11 cells assessed as reduction in RNA PolII CTD phosphorylation at Ser5 residue measured after 6 hrs by western blot analysis; format: cell-based; settings: dose 31.25-8000 nM
# [11] = test system: MV4-11; assay: Induction of apoptosis in human MV4-11 cells assessed as total apoptotic cells at 500 nM after 6 hrs by AnnexinV-FITC/propidium iodide staining based flow cytometry (reference value: 9.75 %); format: functional
# [12] = test system: HepG2; assay: Antiproliferative activity against human HepG2 cells incubated for 72 hrs by MTT assay; format: functional, cell-based; settings: HepG2, 72 h
# [13] = test system: MOLM-13; assay: Antiproliferative activity against human MOLM-13 cells incubated for 72 hrs by MTT assay; format: functional, cell-based; settings: MOLM-13, 72 h
# [14] = test system: MV4-11; assay: Induction of apoptosis in human MV4-11 cells assessed as total apoptotic cells at 30 nM after 6 hrs by AnnexinV-FITC/propidium iodide staining based flow cytometry (reference value: 9.75 %); format: functional
# [15] = test system: MV4-11; assay: Induction of apoptosis in human MV4-11 cells assessed as late apoptotic cells at 1 nM after 6 hrs by AnnexinV-FITC/propidium iodide staining based flow cytometry (reference value: 4.29%); format: functional
# [16] = test system: MV4-11; assay: Induction of apoptosis in human MV4-11 cells assessed as total apoptotic cells at 1000 nM after 6 hrs by AnnexinV-FITC/propidium iodide staining based flow cytometry (reference value: 9.75 %); format: functional
# [17] = test system: MV4-11; assay: Induction of apoptosis in human MV4-11 cells assessed as necrotic cells at 30 nM after 6 hrs by AnnexinV-FITC/propidium iodide staining based flow cytometry (reference value: 0.16 %); format: functional
# [18] = target: T1, Protein cereblon/Cyclin-dependent kinase 9; assay: Protac activity at CRBN/CDK9 in human MOLM-13 cells assessed as CDK9 degradation rate at 500 nM incubated for 6 hrs by Western blot assay relative to control; format: cell-based
# [19] = test system: MV4-11; assay: Induction of apoptosis in human MV4-11 cells assessed as early apoptotic cells at 30 nM after 6 hrs by AnnexinV-FITC/propidium iodide staining based flow cytometry (reference value: 5.36 %); format: functional
# [20] = test system: MV4-11; assay: Induction of apoptosis in human MV4-11 cells assessed as late apoptotic cells at 100 nM after 6 hrs by AnnexinV-FITC/propidium iodide staining based flow cytometry (reference value: 4.29%); format: functional
# [21] = target: T1, Protein cereblon/Cyclin-dependent kinase 9; assay: Protac activity at CRBN/CDK9 in human MV4-11 cells assessed as induction of CDK9 degradation at 250 nM pretreated for 2 hrs with CDK9 inhibitor, […] followed by incubation with compound for 6 hrs by western blot analysis; format: cell-based
# [22] = test system: MV4-11; assay: Induction of apoptosis in human MV4-11 cells assessed as early apoptotic cells at 500 nM after 6 hrs by AnnexinV-FITC/propidium iodide staining based flow cytometry (reference value: 5.36 %); format: functional
# [23] = test system: MV4-11; assay: Induction of apoptosis in human MV4-11 cells assessed as viable cells at 100 nM after 6 hrs by AnnexinV-FITC/propidium iodide staining based flow cytometry (reference value: 90.1 %); format: functional; settings: read-out: Activity
# [24] = target: T1, Protein cereblon/Cyclin-dependent kinase 9; assay: PROTAC activity at CRBN/CDK9 in human MV4-11 cells assessed as reduction in RNA PolII CTD phosphorylation at Ser2 residue measured after 6 hrs by western blot analysis; format: cell-based; settings: dose 31.25-8000 nM
# [25] = test system: MV4-11; assay: Induction of apoptosis in human MV4-11 cells assessed as viable cells at 1 nM after 6 hrs by AnnexinV-FITC/propidium iodide staining based flow cytometry (reference value: 90.1 %); format: functional; settings: read-out: Activity
# [26] = test system: MV4-11; assay: Induction of apoptosis in human MV4-11 cells assessed as necrotic cells at 100 nM after 6 hrs by AnnexinV-FITC/propidium iodide staining based flow cytometry (reference value: 0.16 %); format: functional
# [27] = test system: MV4-11; assay: Induction of apoptosis in human MV4-11 cells assessed as necrotic cells at 250 nM after 6 hrs by AnnexinV-FITC/propidium iodide staining based flow cytometry (reference value: 0.16 %); format: functional
# [28] = target: T1, Protein cereblon/Cyclin-dependent kinase 9; assay: Protac activity at CRBN/CDK9 in human MV4-11 cells assessed as induction of CDK9 degradation by measuring downregulation of CDK9 expression level at 250 nM measured after 1 hr by western blot analysis; format: cell-based
smiles,measurement,setting,value
COc1cc(F)ccc1-c1ncnc(Nc2cccc(CS(C)(=O)=NC(=O)CCCCCCCC(=O)NCCNc3cccc4c3C(=O)N(C3CCC(=O)NC3=O)C4=O)c2)n1 (stereo not drawn),Activity,[1],54.4%
same,Activity,[2],45.1%
same,viability at 1 µM,[3],28.2%
same,IC50,[4],25 nM
same,IC50,[5],1400 nM
same,Activity,[6],13.7%
same,Activity,[7],26.8%
same,half-life,[8],1.3 h
same,Activity,[9],100%
same,Activity,[10],Dose-Dependent Effect
same,Activity,[11],67.9%
same,IC50,[12],2110 nM
same,IC50,[13],120 nM
same,Activity,[14],22.3%
same,Activity,[15],14%
same,Activity,[16],80.4%
same,Activity,[17],0.28%
same,Activity,[18],100%
same,Activity,[19],7.46%
same,Activity,[20],15.3%
same,Activity,[21],inactive
same,Activity,[22],54.2%
same,viability at 0.1 µM,[23],72.7%
same,Activity,[24],Dose-Dependent Effect
same,viability at 0.001 µM,[25],79.1%
same,Activity,[26],0.47%
same,Activity,[27],0.47%
same,Activity,[28],Active
